From US20240024403A1, “Compositions and Methods for Managing Weight” (Unigen, Inc., priority 2012, published 2024)
Like-named read-outs stand apart in the source and are kept apart here. One block for each molecule: values may come before it.

Columns and labels:
[1] = tested on: Rice α-glucosidase; assay: Rice α-Glucosidase inhibition assay; type: biochemical; conditions: 100 μg/ml
Protocol: Inhibition of rice α-glucosidase activity by each of the purified Kuwanon G and Albanin G compounds was measured as follows. […] The reaction was initiated with addition of 2 mM p-nitrophenyl a-D-glucopyanoside, incubated for another 90 minute at 70° C., and then terminated by adding of 1 M sodium carbonate. The end-product p-nitrophenol was measured by spectrophotometer.

[2] = molecular target: human cannabinoid CB2 receptor protein (Homo sapiens (Human), UniProt P34972); assay: CB2 receptor-ligand binding assay ([3H] WIN-55,212-2)
Protocol: Briefly, human cannabinoid CB2 receptor protein expressed in CHO-K1 cells were used in modified HEPES buffer (pH 7.0). A 30 μg aliquot of CB2-membrane was mixed with tritium labeled nonspecific CB1 agonist [3H] WIN-55,212-2 (2.4 nM) and test samples of Kuwanon G and Albanin G compounds, or just the nonspecific ligand R (+)-WIN-55,212-2 (10 μM) (positive control) were incubated in incubation buffer (20 mM HEPES (pH 7.0), 0.5 mg/ml BSA) for 90 minutes at 37° C. After incubation, the membranes were filtered and washed; the filters were then counted to determine the amount of radiolabeled [^3H] WIN-55,212-2 that was specifically bound to the CB2-membrane.

[3] = molecular target: T1, human CB1 receptor (Homo sapiens (Human), UniProt P21554); assay: CB1 receptor binding assay ([3H] SR141716A); conditions: for inhibition at 20 µg/mL: read-out: % Inhibition CB1-Binding; for CB1 selectivity over CB2: from CB1 and CB2 IC50
Protocol: Cannabinoid receptor binding assays were used as a primary screening method to identify CB1 antagonist compounds. […] Briefly, human cannabinoid receptor protein bound to Chem-1 membrane was used in modified HEPES (pH 7.4) buffer. A 10 microgram (μg) aliquot of Chem-1 membrane, radioactively labeled [^3H] […] After incubation, the membranes were filtered and washed four times and then the filters were counted to determine amount of [^3H]

[4] = molecular target: T1, human CB1 receptor; assay: CB1 Antagonist Effect GPCR Functional Assay (cAMP); type: cell-based; conditions: for inhibition at 100 µM: read-out: CB1 Antagonist Inhibition
Protocol: (§1) In vitro efficacy and CB1 binding specificity of compounds isolated from Morus alba and Milicia excelsa were tested in the human CB1 receptor binding assay, and the agonist or antagonist function of the compounds was determined by measuring the effect on cAMP or agonist-induced cAMP modulation.
(§2) Following 10 min incubation at 37° C., the cells are lysed and the fluorescence acceptor (D2-labeled cAMP) and fluorescence donor (anti-cAMP antibody labeled with europium cryptate) are added. After 60 min at room temperature, the fluorescence transfer is measured at λex=337 nm and λem=620 nm and 665 nm using a microplate reader (Rubystar, BMG). The cAMP concentration is determined by dividing the signal measured at 665 nm by that measured at 620 nm (ratio).

[5] = DPPH anti-oxidation test
Protocol: The DPPH radical has a violet color in solution, but changes to light yellow or colorless when reduced to DPPH-H (2,2-diphenyl-1-picrylhydrazin) after reaction with free radicals. The color change can be followed spectrophotometrically at 517 nm to determine the anti-oxidative potential of a composition. Briefly, a 0.2 mM solution of DPPH in DMSO was mixed with each test sample at concentrations of 20, 40, 80 and 160 μg/ml. Ascorbic acid was used as a positive control. After a 30 minute incubation in the dark, the color change (i.e., decrease in absorbance) was measured at 517 nm in a spectrophotometer.

[6] = tested on: 3T3-L1 adipocytes; assay: Lipolysis (free glycerol released) in mature 3T3-L1 adipocytes; type: cell-based, Mouse; conditions: 10 μM
Protocol: Isoproterenol (10 μM) was used as a positive control. The conditioned medium was recovered and free glycerol released was assayed by using a lipolysis assay kit (Sigma-Aldrich Inc., USA) following the manufacturer's instructions.

[7] = molecular target: T1, human CB1 receptor; assay: CB1 Agonist Effect GPCR Functional Assay (cAMP); type: cell-based
Protocol: as §1
as §2, with “Following a” for “Following”, “10 minute” for “10 min”, “cryptate) were” for “cryptate) are”

[8] = tested on: 3T3-L1 adipocytes; assay: Lipid accumulation in 3T3-L1 adipocytes (Oil-Red O); type: cell-based, Mouse; conditions: 10 ng/ml
Protocol: Briefly, 3T3 L1cells (American Type Culture Collection) were cultured in Dulbecco's modified Eagle's medium (DMEM) (GIBCO) containing 10% bovine calf serum until confluent. Two days post-confluence (DO), cells were stimulated to differentiate with DMEM containing 10% fetal bovine serum (FBS), 5 μg/ml insulin, 0.5 mM 3-isobutyl-1-methylxanthine (IBMX) and 1 μM dexamethasone for two days (D2).
Differentiated cells were then maintained in 10% FBS/DMEM medium with 5 μg/ml insulin for another two days (D4), followed by culturing with 10% FBS/DMEM medium for four days (D8).
To examine lipid accumulation, four different concentrations of Composition 3 (40, 80, 120 and 160 ug/ml) were tested with medium from Days 0 to 8 of adipogenesis. The culture medium was replaced every two days, and the cells were stained with Oil-Red O on Day 8.

[9] = tested on: 3T3-L1 cells; assay: Intracellular triglyceride accumulation in differentiating 3T3-L1 cells; type: cell-based, Mouse; conditions: 10 ng/ml; 8 days differentiation
Protocol: The cells were washed with PBS, scraped with homogenizing solution, residual cell lysate was centrifuged at 3,000 g for 5 minutes to remove fat layers, and the supernatants were assayed for triglyceride levels.

human cannabinoid CB2 receptor protein, sequence (P34972 whole entry): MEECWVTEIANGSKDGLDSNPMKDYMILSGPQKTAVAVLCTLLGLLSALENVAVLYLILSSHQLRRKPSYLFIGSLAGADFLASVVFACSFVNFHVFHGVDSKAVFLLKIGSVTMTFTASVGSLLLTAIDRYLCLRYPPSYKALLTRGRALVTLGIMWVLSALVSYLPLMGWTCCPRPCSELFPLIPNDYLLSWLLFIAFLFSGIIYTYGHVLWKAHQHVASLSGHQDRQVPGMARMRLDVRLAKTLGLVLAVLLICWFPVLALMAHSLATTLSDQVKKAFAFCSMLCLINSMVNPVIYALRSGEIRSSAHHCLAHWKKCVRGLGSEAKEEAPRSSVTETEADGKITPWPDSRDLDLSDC
T1 sequence (P21554 whole entry): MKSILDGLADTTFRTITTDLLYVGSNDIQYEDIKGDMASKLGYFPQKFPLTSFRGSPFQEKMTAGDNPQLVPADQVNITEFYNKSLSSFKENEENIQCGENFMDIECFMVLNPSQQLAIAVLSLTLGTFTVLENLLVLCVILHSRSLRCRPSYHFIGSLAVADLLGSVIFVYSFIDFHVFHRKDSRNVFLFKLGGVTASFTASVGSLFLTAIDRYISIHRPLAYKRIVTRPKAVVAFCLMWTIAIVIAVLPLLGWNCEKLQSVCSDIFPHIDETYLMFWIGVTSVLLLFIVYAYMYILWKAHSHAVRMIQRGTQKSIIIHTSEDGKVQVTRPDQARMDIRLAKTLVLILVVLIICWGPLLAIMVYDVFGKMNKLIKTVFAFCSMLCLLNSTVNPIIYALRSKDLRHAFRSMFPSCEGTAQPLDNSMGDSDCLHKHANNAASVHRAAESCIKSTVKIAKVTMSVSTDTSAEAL

% Inhibition Rice α-glucosidase [1]: 66% | IC50 [2]: 6.6 µM | IC50 [3]: 0.1 µM | inhibition at 20 µg/mL ([3]; 20 μg/ml): 96% | CB1 selectivity over CB2 [3]: CB1 selective inhibitors | CB1 receptor functional behavior (antagonist) [4]: modest antagonist-like activity | inhibition at 100 µM ([4]; at 100 μM): 17%
Molecule: CC(C)=CCc1c(O)ccc(C(=O)C2C(c3c(O)cc(O)c4c(=O)c(CC=C(C)C)c(-c5ccc(O)cc5O)oc34)C=C(C)CC2c2ccc(O)cc2O)c1O (centres unmarked) [Albanin G]

Molecule: O=C1O[C@H]([C@@H](O)CO)C(O)=C1O [Ascorbic acid]
DPPH Inhibition (%) ([5]; 20 μg/ml): 50.8 ± 0.83% | DPPH Inhibition (%) ([5]; 40 μg/ml): 53.6 ± 1.72% | DPPH Inhibition (%) ([5]; 80 μg/ml): 64.2 ± 0.86% | DPPH Inhibition (%) ([5]; 160 μg/ml): 76.6 ± 0.30%

Molecule: CC(C)NCC(O)c1ccc(O)c(O)c1 (centres unmarked) [Isoproterenol]
Lipolysis, % of Control ([6]; 24 hrs): 464.2 % of Control | Lipolysis, % of Control ([6]; 48 hrs): 525.0 % of Control

Molecule: CC(C)=CCc1c(-c2ccc(O)cc2O)oc2c(C3C=C(C)CC(c4ccc(O)cc4O)C3C(=O)c3ccc(O)cc3O)c(O)cc(O)c2c1=O (centres unmarked) [Kuwanon G]
% Inhibition Rice α-glucosidase [1]: −22% | IC50 [2]: 28.9 µM | IC50 [3]: 10.1 µM | % Inhibition CB1-Binding ([3]; 20 μg/ml): 92% | CB1 selectivity over CB2 [3]: CB1 selective inhibitors | CB1 Antagonist Inhibition ([4]; at 100 μM): −1% | CB1 receptor functional behavior (agonist) [7]: agonist-like behavior instead of antagonist | EC50 [7]: 85 µM

Molecule: CC(C)=CCC12Oc3c(c(O)cc(O)c3C3C=C(C)CC(c4ccc(O)cc4O)C3C(=O)c3ccc(O)cc3O)C(=O)C1(O)Oc1cc(O)ccc12 (centres unmarked) [Sanggenon, Sanggenon C/D/]
IC50 [2]: 24 µM | IC50 [3]: 3.5 µM | CB1 selectivity over CB2 [3]: CB1 selectivity over the CB2 receptor protein | inhibition at 20 µg/mL [3]: 96% | inhibition at 100 µM [4]: -14% | CB1 receptor functional behavior (agonist) [7]: agonist-like behavior instead of antagonist | EC50 [7]: 31 µM

Molecule: TNF-α
Inhibition (%) of lipid accumulation ([8]; Table 159, Oil-Red O Day 8): 61.0% | Inhibition (%) of lipid accumulation ([8]; Table 160): 68.9% | Inhibition (%) of lipid accumulation ([8]; Table 161): 74.1 ± 6.06% | Inhibition (%) of intracellular triglyceride accumulation [9]: 19.4%
